The source of these data is PMC11490426, “Structure-activity relationship of amino acid analogs to probe the binding pocket of sodium-coupled neutral amino acid transporter SNAT2” (Amino Acids, 2024).

Entries after “also recorded” stand apart in the source; their conditions may differ. Structures can show the parent of a compound that is named as a salt. Where two headings read alike, the source gives them in different places.

Experiment [1] deals with T1, SNAT2 (Homo sapiens, UniProt Q96QD8).
T1 construct: hyperosmotically treated PC-3 cells, known to upregulate SNAT2; endogenous in cells; host or cells: PC-3 prostate cells exposed to hyperosmotic medium for 24 h
T1 sequence (Q96QD8 1-506): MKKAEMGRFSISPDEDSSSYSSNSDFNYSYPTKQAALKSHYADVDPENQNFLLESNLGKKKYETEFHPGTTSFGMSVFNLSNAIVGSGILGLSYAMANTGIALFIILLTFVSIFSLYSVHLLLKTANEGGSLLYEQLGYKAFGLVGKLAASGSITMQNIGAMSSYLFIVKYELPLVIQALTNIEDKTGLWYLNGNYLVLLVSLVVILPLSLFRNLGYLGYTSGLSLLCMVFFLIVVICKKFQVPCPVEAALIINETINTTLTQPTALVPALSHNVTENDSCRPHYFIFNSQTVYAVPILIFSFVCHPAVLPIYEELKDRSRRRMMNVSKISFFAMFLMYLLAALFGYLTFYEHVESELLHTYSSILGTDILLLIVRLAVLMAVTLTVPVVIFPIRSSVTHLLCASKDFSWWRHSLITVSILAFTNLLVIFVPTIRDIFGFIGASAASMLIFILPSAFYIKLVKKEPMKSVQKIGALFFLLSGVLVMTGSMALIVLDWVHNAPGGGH
Kind of experiment: Inhibition of SNAT2-mediated 3H-glycine uptake in hyperosmotically treated PC-3 cells. It is filed as cell-based. To be noted: for inhibition of SNAT2-mediated 3H-glycine uptake / affinity for SNAT2: pH 7.4, result in words. The procedure: Where Y is the % uptake, X is the concentration of the inhibitor, Top and Bottom are the top and bottom plateau respectively, and IC50 is the half maximal inhibitory concentration. These studies were performed in at least 3 independent cell passages (n = 3) and a curve was defined for each independent passage. However, for each compound, the top and bottom were constrained to be the same amongst the different cell passages.

Experiment [2] concerns the target T1, SNAT2. The experiment can be described thus: FLIPR membrane potential (FMP) assay in PC-3 cells. It is filed as cell-based. To be noted: for response in the FMP assay (stimulation of SNAT2 activity) / influence on fluorescence intensity in the FMP assay: result in words; for influence on fluorescence intensity in the FMP assay: 20 mM. The procedure:
PC-3 cells exposed to hyperosmotic media for 24 h were used to identify SNAT2 substrates in the FMP assay. The media was aspirated, and the cells were preincubated in HBSS + for 10 min at 37 °C and 220 rpm. Then the buffer was aspirated, and cells were then incubated in 50 µL HBSS + containing 0.55 mg ⋅ mL^− 1 (1x) FMP probe (Blue component A from Molecular Devices, San Jose, CA, USA) for 30 min at 37 °C and 220 rpm. […] First, the baseline was measured for 30 s by measuring each well every 3 s. The plate was then removed from the reader and 50 µL of substrate solutions containing 0.55 mg ⋅ mL^− 1 FMP probe was added. These solutions were prepared by mixing equal parts solution containing 2x FMP probe and solutions containing 4x the final concentration of substrate. […] Following this, the baseline of the next column was measured and followed the same procedure as just described.
For the FMP data, the baseline was defined as the mean fluorescence of the first data point before substrate addition. The baseline of each well was then subtracted from the data point to get the ΔF. Plotting ΔF as a function of time and calculating the area under the curve (AUC) after substrate addition was used as a measure of SNAT2 activity.

Experiment [3] has as its target T1, SNAT2. Details: method as in Jakobsen et al. [2023]; Nielsen et al. [2022]. To be noted: hyperosmotically treated PC-3 cells; ref Jakobsen et al. [2023]; Nielsen et al. [2022]; cited from earlier work.
Experiment [4] has as its target T1, SNAT2. Kind of experiment: FLIPR membrane potential (FMP) assay in PC-3 cells. It counts as cell-based. To be noted: isoosmotically treated PC-3 cells.
Experiment [5] concerns the target T1, SNAT2. The experiment can be described thus: Intracellular amino acids and analogs quantified by OPA derivatization and HPLC-Fl after uptake in PC-3 cells. It counts as cell-based. To be noted: 30 min uptake; for fold change of intracellular accumulation in absence vs presence of 10 mM L-glutamine: pH 7.4.
Procedure: Derivatization of AAs and analogs using o-phthalaldehyde (OPA) and 2-mercaptoethanol (2-ME) to make fluorescent derivatives was used to measure the intracellular amounts of AAs and analogs following uptake in hyperosmotically treated PC-3 cells. Before starting the experiment, the medium was aspirated, and the cells were preincubated in HBSS + for 15 min at 37 °C and 220 rpm. The cells were then incubated with 500 µL HBSS+ (background) or HBSS + containing AAs or analogs at given concentrations for 30 min at 37 °C and 220 rpm. After aspirating the donor solutions, the cells were washed thrice with 500 µL of ice-cold PBS while keeping the cells on ice. 200 µL of ice-cold 1x-trypsin was added to each well and allowed to distribute for 20–30 min while keeping the cells on ice. The plate was then transferred to an incubating microplate shaker at 37 °C and 220 rpm for about 8 min or until the cells had detached. 300 µL of ice-cold PBS was added to each well to resuspend the cells and transfer them to centrifuge tubes. The cells were centrifuged at 1000 G for 5 min (4 °C), the supernatant was removed, the cells were resuspended in 300 µL ice-cold PBS, and then centrifuged again at 1000 G for 5 min (4 °C). After removing the supernatant, the cell pellet was lysed by adding 100 µL of 80% methanol (20% ultrapure water) and placing the tubes in an ultrasonic bath for 10 min. The tubes were then centrifuged at 15,000 G for 15 min (4 °C) and the resulting supernatant was used for analysis.
The OPA reagent was prepared by spiking with 2 µL 2-ME per mL of OPA regent and was considered stable for use within one day. 10 µL of the cell samples or standards containing a mixture of the AAs and analogs of interest were placed in HPLC vials with 100 µL inserts. […] The autosampler kept the samples at 10 °C and the pretreatment function was used to automatically mix the samples with 10 µL of the OPA reagent and wait 4 min before loading 2 µL onto a YMC-Triart C18 column (75 × 3.0 mm, 1.9 μm, Mikrolab Aarhus, Viby J, Denmark). […] The fluorescence detector was set to excite at 350 nm and detect at 450 nm.
The resulting chromatograms were integrated and the area under the curve (AUC) of the standard samples was used to generate standard curves to determine the concentration of AAs and analogs in the cell samples. […] Amino acid levels detected in the background cell samples were subtracted from the other cell samples.
The mark [6] stands for this setting: hyperosmotically treated PC-3 cells, 5 min uptake of 11.1 nM 3H-glycine, pH 7.4, read-out: IC50.
The mark [7] stands for this setting: 3 mM compound, hyperosmotically treated PC-3 cells.
[8] abbreviates: hyperosmotically treated PC-3 cells.
Setting [9] is: 10 mM compound, hyperosmotically treated PC-3 cells.
[10] abbreviates: 20 mM compound, hyperosmotically treated PC-3 cells.

As for `N[C@@H](CC1CCCCC1)C(=O)O` [3-Cyclohexyl-L-alanine, 3-cyclohexyl-L-alanine], the IC50 in experiment [1] (setting [6]) is 630 µM. Also, in experiment [2] (setting [7]), the “AUC of fluorescence response-time curve” value is 21.9 ± 0.5 10^5 RFU ∙ s and the “AUC, % of 10 mM L-alanine” value was 99.2 ± 2.4%. For the same compound, the “response in the FMP assay (stimulation of SNAT2 activity)” value (“response in the FMP assay” below) in experiment [2] (setting [8]) is “substrates of SNAT2”.
For `CC(=O)C(C)N.Cl` (centres unmarked) [3-aminobutan-2-one, 3-Aminobutan-2-one hydrochloride], the “inhibition of SNAT2-mediated 3H-glycine uptake / affinity for SNAT2” value in experiment [1] (setting [8]) is “retains some affinity for SNAT2”.
For `C[N+](C)(C)CC(=O)O` [Betaine, betaine], the IC50 in experiment [1] (setting [6]) is 6600 µM. Besides, the “reduction of 3H-glycine uptake” value in experiment [3] is given as ~86%.
For the compound `NCC(=O)O` [Glycine, glycine], the IC50 in experiment [1] (setting [6]) worked out at 520 µM. The “pIC50 ± SEM” value in experiment [1] (hyperosmotically treated PC-3 cells, -log transformed IC50) is “[3.3 ± 0.11]”.
Turning to `CCOC(=O)[C@H](C)N` [L-Alanine ethyl ester, L-alanine ethyl ester hydrochloride], in experiment [1] (setting [6]), the IC50 turned out to be 420 µM. In addition, in experiment [2] (setting [9]), the “AUC of fluorescence response-time curve” value is on record as 21.1 ± 0.6 10^5 RFU ∙ s and the “AUC, % of 10 mM L-alanine” value is reported as 95.4 ± 2.5%. Besides, the “response in the FMP assay” value in experiment [2] (setting [8]) was “substrates of SNAT2”.
Take `COC(=O)[C@H](C)N` [L-Alanine methyl ester, L-alanine methyl ester hydrochloride]: in experiment [1] (setting [6]), the IC50 is 330 µM. Besides, in experiment [2] (setting [9]), the “AUC of fluorescence response-time curve” value was 23.5 ± 0.8 10^5 RFU ∙ s and the “AUC, % of 10 mM L-alanine” value worked out at 106.6 ± 3.8%. Also, the “response in the FMP assay” value in experiment [2] (setting [8]) is “substrates of SNAT2”.
On to `C[C@H](N)C(=O)OC(C)(C)C` [L-Alanine tert-butyl ester, L-alanine tert-butyl ester hydrochloride], for which, in experiment [1] (setting [6]), the IC50 was 4100 µM.
For orientation: EC50 means the concentration giving half of the maximal effect. Regarding `C[C@H](N)C(=O)O` [L-Alanine, L-alanine], the EC50 was 138 µM in experiment [4] and 245 µM in experiment [2] (setting [8]). The IC50 in experiment [1] (setting [6]) is 170 µM. The “inhibition of 3H-glycine uptake at different pH levels” value in experiment [1] (pH 6.8, 7.4 and 8.0, 0.4 mM L-alanine benzyl ester or 0.2 mM L-alanine, two-way ANOVA) was “no significant differences in inhibition at the different pH levels”. The “AUC of fluorescence response-time curve” value in experiment [2] (setting [9]) is recorded as 22.1 ± 0.9 10^5 RFU ∙ s. Also, the “AUC, % of 10 mM L-alanine” value in experiment [2] (setting [9]) came to 100 ± 3.9%.
Regarding `N=C(N)NCCC[C@H](N)C(=O)O` [L-Arginine, L-arginine hydrochloride], in experiment [2] (setting [10]), the “AUC of fluorescence response-time curve” value was -0.97 ± 0.3 10^5 RFU ∙ s and the “AUC, % of 10 mM L-alanine” value was -4.4 ± 1.2%. In addition, the “influence on fluorescence intensity in the FMP assay” value in experiment [2] was “little influence on the fluorescence intensity”.
In the case of `O=C(O)[C@@H]1CCN1` [L-Azetidine-2-carboxylic acid, L-azetidine-2-carboxylic acid], the IC50 in experiment [1] was 660 µM.
Take `N[C@@H](CCO)C(=O)O` [L-Homoserine, L-homoserine]: in experiment [1] (setting [6]), the IC50 worked out at 250 µM. In experiment [2] (setting [9]), the “AUC of fluorescence response-time curve” value is 25.9 ± 1.4 10^5 RFU ∙ s and the “AUC, % of 10 mM L-alanine” value is 117.5 ± 6.2%. In addition, in experiment [2] (setting [8]), the “response in the FMP assay” value was “substrates of SNAT2”.
In the case of `CCCC[C@H](N)C(=O)O` [L-Norleucine, L-norleucine], in experiment [2] (setting [9]), the “AUC of fluorescence response-time curve” value is on record as 24.4 ± 1.3 10^5 RFU ∙ s and the “AUC, % of 10 mM L-alanine” value is on record as 110.4 ± 6.1%. For the same compound, the “response in the FMP assay” value in experiment [2] (setting [8]) is given as “substrates of SNAT2”.
Take `O=C(O)[C@@H]1CCCCN1` [L-Pipecolinic acid, L-pipecolinic acid]: the IC50 in experiment [1] (setting [6]) was 2900 µM. In experiment [2] (setting [9]), the “AUC of fluorescence response-time curve” value is given as 18.1 ± 0.2 10^5 RFU ∙ s and the “AUC, % of 10 mM L-alanine” value worked out at 81.9 ± 0.8%. Moreover, the “response in the FMP assay” value in experiment [2] (setting [8]) is on record as “substrates of SNAT2”.
With `O=C(O)[C@@H]1CCCN1` [L-Proline, L-proline], in experiment [1] (setting [6]), the IC50 amounted to 640 µM.
As to `N[C@@H](CO)C(=O)O` [L-Serine, L-serine], in experiment [5] (0.45 mM compound), the “fold change of intracellular accumulation in absence vs presence of 10 mM L-glutamine” value was 4.1 fold. The IC50 in experiment [1] (setting [6]) was determined as 460 µM. For the same compound, in experiment [2] (setting [9]), the “AUC of fluorescence response-time curve” value is on record as 24 ± 0.9 10^5 RFU ∙ s and the “AUC, % of 10 mM L-alanine” value was found to be 108.6 ± 4.2%.
For the compound `C[C@H](N)CO` [L-alaninol], in experiment [1] (setting [8]), the “inhibition of SNAT2-mediated 3H-glycine uptake / affinity for SNAT2” value is recorded as “potency is lost”.
Same read-out and setting: the result for `N[C@@H](CCC(=O)O)C(=O)O` [L-glutamate, L-glutamic acid] reads “limited affinity”; that for `NCCCC[C@H](N)C(=O)O` [L-lysine, L-lysine monohydrochloride], “limited affinity”.
On the same count and under the same terms, then `N[C@@H](Cc1ccccc1)C(=O)O` [L-phenylalanine], with “relatively poor at inhibiting SNAT2”.
Take `CN(C)CC(=O)O` [N,N-Dimethylglycine, N,N-dimethylglycine hydrochloride]: the IC50 in experiment [1] (setting [6]) is 23000 µM; in experiment [1] (hyperosmotically treated PC-3 cells, -log transformed IC50, read-out: pIC50 ± SEM (converted)), 25100 µM.
With `CNCC(=O)O` [Sarcosine, sarcosine], the IC50 in experiment [1] (setting [6]) was 710 µM.
With `NCCS(=O)(=O)O` [Taurine, taurine], in experiment [2] (setting [10]), the “AUC of fluorescence response-time curve” value is -1.0 ± 0.2 10^5 RFU ∙ s and the “AUC, % of 10 mM L-alanine” value is recorded as -4.7 ± 0.7%. The “influence on fluorescence intensity in the FMP assay” value in experiment [2] is reported as “did not lead to an increase in fluorescence; also recorded: little influence on the fluorescence intensity”.
Regarding `Cl.NCC(N)=O` [glycinamide, glycinamide hydrochloride], the “inhibition of SNAT2-mediated 3H-glycine uptake / affinity for SNAT2” value in experiment [1] (setting [8]) is “potency is lost”.
On the same count and under the same terms, then `N[C@H](C(=O)O)c1ccc(O)cc1` [oxfenicine, Oxfenicine], with “relatively poor at inhibiting SNAT2”.
Consider `O=C(O)c1ccccn1` [picolinic acid], for which, in experiment [1] (setting [8]), the “Hill slope of concentration-response curve” value is on record as -4.2. For the same compound, in experiment [1] (setting [6]), the IC50 was found to be 5600 µM.
For `O=C(O)[C@@H]1C[C@@H](O)CN1` [trans-4-Hydroxy-L-proline, trans-4-hydroxy-L-proline], the IC50 in experiment [1] worked out at 3500 µM.
In the case of `N[C@@H](CCC(=O)OCc1ccccc1)C(=O)O` [γ-Benzyl L-glutamate, γ-benzyl L-glutamate], the “fold change of intracellular accumulation in absence vs presence of 10 mM L-glutamine” value in experiment [5] (0.7 mM compound) is 5.4 fold. For the same compound, the “level of intracellular accumulation” value in experiment [5] (result in words) is “relatively low accumulation”. In experiment [1] (setting [6]), the IC50 is 680 µM. In experiment [2] (setting [7]), the “AUC of fluorescence response-time curve” value is 1.7 ± 0.4 10^5 RFU ∙ s and the “AUC, % of 10 mM L-alanine” value amounted to 7.8 ± 1.9%. Moreover, the “response in the FMP assay” value in experiment [2] (setting [8]) is given as “little or no stimulation of SNAT2 activity”.
